Assay in all cases: growth of human tumour cells (NCI), 48 h
Assay [1] deals with CAKI-1.
The test system of assay [2] is HCT-15.
Assay [3] deals with HL-60.
Assay [4] concerns HOP-92.
Assay [5] concerns Hs-578T.
The subject of assay [6] is KM12.
Assay [7] has as its system LOX IMVI.
Assay [8] has as its system MCF7.
The subject of assay [9] is NCI/ADR-RES.
In assay [10] the test system is OVCAR-3.
Assay [11] has as its system OVCAR-4.
The subject of assay [12] is OVCAR-8.
Assay [13] has as its system RPMI-8226.
In assay [14] the test system is RXF 393.
Assay [15] deals with SK-MEL-2.
Assay [16] relates to SK-MEL-5.
Assay [17] concerns SK-OV-3.
Assay [18] has as its system SR.
Assay [19] relates to UACC-62.
Assay [20] concerns UO-31.

Molecules are shown by their SMILES.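 Method: 48-hour compound exposure of cells in 96-well plates, five concentrations, linear interpolation of endpoints. At the GI50, growth is halved.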 Activity calls are given as the source filed them. No stated cut-off is given here; in the data, active = GI50 up to about 1.1 µM and inactive = higher.

Turning to `O=C(N/N=C\c1ccc([N+](=O)[O-])cc1)Nc1ccccc1`, the GI50 in assay [1] was > 100 µM (inactive); in assay [2], greater than 100 µM; in assay [3], > 100 µM (inactive); in assay [4], > 100 µM (inactive); in assay [5] it was > 100 µM (inactive); in [6], > 100 µM (inactive). Also, the GI50 was > 10 µM (inactive) in assay [7]; > 100 µM (inactive) in assay [8]; > 100 µM (inactive) in assay [9]; > 100 µM (inactive) in assay [10]; > 100 µM (inactive) in assay [11]; > 100 µM (inactive) in assay [12]. Also, the GI50 in assay [13], in [14], in assay [15], in assay [16], in assay [17] and in assay [18] was > 100 µM (inactive) throughout. The GI50 in assay [19] and in assay [20] was > 100 µM (inactive) throughout.

Turning to `c1ccc(COC2C3COC(O3)C(OCc3ccccc3)C2OCc2ccccc2)cc1` (stereo not given), the GI50 was > 100 µM (inactive) in assay [1]; 34 µM in [2]; 13.2 µM (inactive) in assay [3]; 67.1 µM (inactive) in [4]; 31.4 µM (inactive) in [5]; 29.6 µM (inactive) in assay [6]. Besides, the GI50 in assay [7] is 30.6 µM (inactive); in [8], 39.1 µM (inactive); in [9], 32.1 µM (inactive); in assay [10], 57.8 µM (inactive); in [11], 49.1 µM (inactive); in [12] it was 60.7 µM (inactive). For the same molecule, the GI50 in [13] was 12.2 µM (inactive); in [14], 45.4 µM (inactive); in [15], 54.3 µM (inactive); in assay [16] it was 34.4 µM (inactive); in assay [17], > 100 µM (inactive); in assay [18], 4.84 µM (inactive). Further, the GI50 in [19] is > 100 µM (inactive); in [20], 56.2 µM (inactive).

Take `COc1ccc(C2(C3c4cc(OC)c(OC)cc4CCN3C)SCCCS2)cc1O` (stereo not given): the GI50 in [1] is > 100 µM (inactive); in [2] it was greater than 100 µM; in [3] it was > 100 µM (inactive); in [4], 76.2 µM (inactive); in [5], 23.7 µM (inactive); in assay [6] it was 71.8 µM (inactive). For the same molecule, the GI50 in assay [7] was > 100 µM (inactive); in assay [8] it was > 100 µM (inactive); in assay [9] it was 94 µM (inactive); in assay [10] it was > 100 µM (inactive); in assay [11], > 100 µM (inactive); in assay [12] it was > 100 µM (inactive). Moreover, the GI50 in [13] is > 100 µM (inactive); in assay [14], > 100 µM (inactive); in assay [15], > 100 µM (inactive); in [16], > 100 µM (inactive); in assay [17], 72.9 µM (inactive); in assay [18], 68.1 µM (inactive). Also, the GI50 in assay [19] and in assay [20] was > 100 µM (inactive) throughout.

The values are drawn from ChEMBL document CHEMBL1201862, “PubChem BioAssay data set” (2004).
